Measured values from PubChem BioAssay AID2060490 (Molecular Pharmacology Branch, DTP, NCI, 2025).
“And” between values parts separate entries of the source, which are not always exact repeats. Equal values may be shown once. Values belong to the molecule of their own block, whether it stands above or below them.

Test system: 885512-296-R-J2-PDC complex spheroid viability
Test: Anticancer human tumor 885512-296-R-J2-PDC patient-derived breast carcinoma cell line growth inhibition [GQUAD]
Details: for viability, T/C: stronger effect = lower value
Source text: DNA G-quadruplex Stabilizer Agents in Combinations in Complex Spheroids
A high-throughput screen of multi-cell type tumor spheroids was designed to identify active combinations of DNA G-quadruplex stabilizer agents and targeted small molecules. Complex spheroids include a stromal component modeled by human endothelial cells (HUVEC) and fibroblasts modeled by human mesenchymal stem cells (MSCs). The concentration ranges selected for each drug and investigational agent were based upon clinically achievable concentrations if the clinical Cmax of the agent was known.
Compounds. The drugs and investigational agents: pidnarulex (CX-5461; NSC782164), APTO-253 (NSC789042), BRACO-19 (NSC847499), peposertib (NSC802822), ceralasertib (NSC780249), elimusertib (NSC800525), camonsertib (NSC841442), AZD-1390 (NSC803789), olaparib (NSC753686), talazoparib (NSC767125), ART-558 (NSC835418), sotorasib (NSC818433), MRTX-1133 (NSC836407), SN-38 (NSC673596), topotecan (NSC609699), etoposide (NSC141540), doxorubicin (NSC123127), gemcitabine (NSC613327), 5-fluorouracil (NSC19893), paclitaxel (NSC125973), vemurafenib (NSC761431), panobinostat (NSC761190), R-306465 (JNJ-16241199; NSC773264), adavosertib (NSC754352), TP-3654 (NSC805149), carboplatin (NSC241240), KSQ-4279 (NSC840948), and staurosporine (NSC755774) were obtained from the National Cancer Institute (NCI) Developmental Therapeutics Program Chemical Repository (34). The FDA-approved anticancer drug set is available from the NCI Developmental Therapeutics Program. […] The stock solutions were prepared in dimethyl sulfoxide (DMSO, Sigma-Aldrich, St. Louis, MO, cat. D2650) at 800-fold the tested concentration and stored at -70 degrees C prior to their use. All drugs and investigational agents were tested over a range starting from a high concentration at or near the clinical Cmax and decreasing in half-log increments. If the clinical Cmax for an agent had not been determined, the highest concentration tested was 10 microM.
2.3 Cell Culture. All cells were maintained in an incubator at 37 degrees C and 5% CO2 with 95% humidity. The PDC lines were cultured according to standard operating procedures established by the NCI PDMR. All PDCs were thawed and cultured in Matrigel-coated flasks prepared with a working solution of 1X Ham's F-12 nutrient mix, without supplementation (Invitrogen, cat. 11765054), 100 U/mL penicillin-streptomycin (Invitrogen, cat. 15140122), and 2.5% Matrigel (Corning Inc., cat. 354248) for the first three passages. The 857933-349-R-J2-PDC line was cultured in 6C/Colon 1B media, which includes advanced DMEM/F-12 (Thermo Fisher Scientific, cat. 12634028), 10 mM HEPES (Thermo Fisher Scientific, cat. 15630080), 1X GlutaMAX supplement (Thermo Fisher Scientific, cat. 35050061), 0.1 mg/mL primocin (InvivoGen, cat. ant-pm-2), 10% defined fetal bovine serum, heat inactivated (HyClone Laboratories Inc., cat. SH30070.03HI), 50% L-WRN conditioned media (ATCC, cat. CRL-3276), 1.25 mM N-Acetyl-L-cysteine (Sigma-Aldrich, cat. A9165), 10 mM nicotinamide (Sigma-Aldrich, cat. N0636), 1X B-27 supplement (Thermo Fisher Scientific, cat. 17504044), 1X N-2 supplement (Thermo Fisher Scientific, cat. 17502048), 10 microM Y-27632 dihydrochloride (Tocris Bioscience, cat. 1254), and 50 ng/mL human EGF recombinant protein (Thermo Fisher Scientific, cat. PHG0311). The 485176-168-R4-J1-PDC line was cultured in Panc media, which includes all 6C/Colon 1B media components plus 100 ng/mL human FGF-10 (Thermo Fisher Scientific, cat. 100-26), 500 nM SB-431542 (Selleckchem, cat. S1067), and gastrin (Tocris, cat. 3006).
[…]
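Note: spheroids exposed to the compounds for one week.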
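Throughout, for viability, T/C: percent of tumor spheroid viability relative to DMSO vehicle control wells.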

IC50 (curve of compound): 8.9 µM and 7.18 µM and 7.7 µM
SMILES: O=C(c1cc(Cc2n[nH]c(=O)c3ccccc23)ccc1F)N1CCN(C(=O)C2CC2)CC1
viability, T/C (compound 0.0316 µM): 99.8% and 85.3% and 97.1% | viability, T/C (compound 0.1 µM): 117% and 107% and 96.9% | viability, T/C (compound 0.316 µM): 112% and 116% and 95.1% | viability, T/C (compound 1 µM): 152% and 127% and 126% | viability, T/C (compound 3.16 µM): 144% and 122% (2×) | viability, T/C (compound 10 µM): 41.6% and 24.8% and 33%

IC50 (curve of compound): < 0.0316 µM and 0.121 µM and 0.187 µM
SMILES: O=C(NO)c1cnc(N2CCN(S(=O)(=O)c3ccc4ccccc4c3)CC2)nc1
viability, T/C (compound 0.316 µM): 3.89% and 20.5% and 27.5% | viability, T/C (compound 1 µM): 2.64% and 2.67% and 5.87% | viability, T/C (compound 3.16 µM): 4.12% and 0.29% and 0.35% | viability, T/C (compound 10 µM): 3.42% and 1.01% and 0.1%

IC50 (curve of compound): > 10 µM and 1.56 µM and 1.7 µM
SMILES: CC(C)(O)C1CCC(Nc2ccc3ncc(-c4cccc(C(F)(F)F)c4)n3n2)CC1 (stereo not drawn)
viability, T/C (compound 0.0316 µM): 102% and 97.2% and 101% | viability, T/C (compound 0.1 µM): 93.2% and 94.8% and 101% | viability, T/C (compound 0.316 µM): 95.9% and 90.2% and 100% | viability, T/C (compound 1 µM): 89.1% and 67.6% and 76.8% | viability, T/C (compound 3.16 µM): 102% and 16.3% and 16.4% | viability, T/C (compound 10 µM): 84.3% and 28.2% and 20.7%

IC50 (curve of compound): 0.0888 µM and 0.0709 µM and 0.07 µM
SMILES: COc1cccc2c1C(=O)c1c(O)c3c(c(O)c1C2=O)CC(O)(C(=O)CO)CC3OC1CC(N)C(O)C(C)O1 (stereo not drawn)
viability, T/C (compound 0.0316 µM): 87.2% and 85.7% and 88.6% | viability, T/C (compound 0.1 µM): 44.6% and 31.4% and 27.5% | viability, T/C (compound 0.316 µM): 23.1% and 20.1% and 23.4% | viability, T/C (compound 1 µM): 5.91% and 6.03% and 8.79% | viability, T/C (compound 3.16 µM): 0.33% and 0.51% and 0.46% | viability, T/C (compound 10 µM): 2.28% and 1.5% and 4.09%

IC50 (curve of first compound, second compound 0.0316 µM): 0.367 µM | IC50 (curve of first compound, second compound 0.1 µM): 0.0928 µM | IC50 (curve of first compound, second compound 0.316 µM): < 0.0316 µM | IC50 (curve of first compound, second compound 1 µM): < 0.0316 µM | IC50 (curve of first compound, second compound 3.16 µM): < 0.0316 µM | IC50 (curve of first compound, second compound 10 µM): < 0.0316 µM
SMILES: CC1COCCN1c1cc(C2(S(C)(=N)=O)CC2)nc(-c2ccnc3[nH]ccc23)n1 (stereo not drawn) + Cc1cnc(CNC(=O)c2c(=O)c3ccc(N4CCCN(C)CC4)nc3n3c2sc2ccccc23)cn1
viability, T/C (second compound 0.0316 µM, first compound 0.0316 µM): 73.9% | viability, T/C (second compound 0.0316 µM, first compound 0.1 µM): 66.2% | viability, T/C (second compound 0.0316 µM, first compound 0.316 µM): 55.8% | viability, T/C (second compound 0.0316 µM, first compound 1 µM): 15.9% | viability, T/C (second compound 0.0316 µM, first compound 3.16 µM): 4.2% | viability, T/C (second compound 0.0316 µM, first compound 10 µM): 3.7% | viability, T/C (second compound 0.1 µM, first compound 0.0316 µM): 63.4% | viability, T/C (second compound 0.1 µM, first compound 0.1 µM): 47.5% | viability, T/C (second compound 0.1 µM, first compound 0.316 µM): 31.3% | viability, T/C (second compound 0.1 µM, first compound 1 µM): 11.4% | viability, T/C (second compound 0.1 µM, first compound 3.16 µM): 5.24% | viability, T/C (second compound 0.1 µM, first compound 10 µM): 3.6% | viability, T/C (second compound 0.316 µM, first compound 0.0316 µM): 25.2% | viability, T/C (second compound 0.316 µM, first compound 0.1 µM): 19.2% | viability, T/C (second compound 0.316 µM, first compound 0.316 µM): 19.4% | viability, T/C (second compound 0.316 µM, first compound 1 µM): 8.96% | viability, T/C (second compound 0.316 µM, first compound 3.16 µM): 4.98% | viability, T/C (second compound 0.316 µM, first compound 10 µM): 4.66% | viability, T/C (second compound 1 µM, first compound 0.0316 µM): 19.8% | viability, T/C (second compound 1 µM, first compound 0.1 µM): 20.2% | viability, T/C (second compound 1 µM, first compound 0.316 µM): 17.1% | viability, T/C (second compound 1 µM, first compound 1 µM): 8.13% | viability, T/C (second compound 1 µM, first compound 3.16 µM): 4.36% | viability, T/C (second compound 1 µM, first compound 10 µM): 4.77% | viability, T/C (second compound 3.16 µM, first compound 0.0316 µM): 25.1% | viability, T/C (second compound 3.16 µM, first compound 0.1 µM): 18.4% | viability, T/C (second compound 3.16 µM, first compound 0.316 µM): 17% | viability, T/C (second compound 3.16 µM, first compound 1 µM): 4.84% | viability, T/C (second compound 3.16 µM, first compound 3.16 µM): 3.04% | viability, T/C (second compound 3.16 µM, first compound 10 µM): 3.44% | viability, T/C (second compound 10 µM, first compound 0.0316 µM): 0.12% | viability, T/C (second compound 10 µM, first compound 0.1 µM): 0.18% | viability, T/C (second compound 10 µM, first compound 0.316 µM): 0.22% | viability, T/C (second compound 10 µM, first compound 1 µM): 0.19% | viability, T/C (second compound 10 µM, first compound 3.16 µM): 0.24% | viability, T/C (second compound 10 µM, first compound 10 µM): 0.23%

SMILES: COc1ncnc(C2CC2)c1-c1ncc2cnn(Cc3ccc(-c4nc(C(F)(F)F)cn4C(C)C)cc3)c2n1
viability, T/C (compound 0.0316 µM): 104% (2×) and 93% | viability, T/C (compound 0.1 µM): 101% and 86% and 90.6% | viability, T/C (compound 0.316 µM): 100% and 59.6% and 104% | viability, T/C (compound 1 µM): 94% and 35.3% and 100% | viability, T/C (compound 3.16 µM): 99.2% and 25.8% and 107%
